# According to the RepoRT retention time repository (doi:10.1021/pr300673x):
# Experiment: RP, 50 × 2.1 mm, 1.7 µm, 0.5 mL/min, estimated dead time 0.22 min; A: 98% water + 2% acetonitrile + 0.1% formic acid, pH 3; B: 2% water + 98% acetonitrile + 0.1% formic acid, pH 3; gradient (min/%B) 0/0 0.5/0 4/60 8/100 9/100 9.2/0 10/0
# Settings: stereoisomer not certain
row,SMILES,LC retention time
1,CC(CCC(=O)O)C1CCC2C3CC(O)C4CC(O)CCC4(C)C3CCC12C (stereo not given),4.78 min
2,CC(=CCCC(C)C1CCC2C3C(O)CC4CC(O)CCC4(C)C3CCC12C)C(=O)O (racemic),6.87 min
3,NC(N)=NCCC(=O)O [3-guanidinopropionic acid],0.883 min
4,CCCCCCCCCCCCCCCCCC(O)CC(=O)O (stereo not given) [3-hydroxyeicosanoic acid],7.39 min
5,"C=CC1=C(C)C(=Cc2[nH]c(Cc3[nH]c(C=C4NC(=O)C(C)=C4C=C)c(C)c3CCC(=O)O)c(CCC(=O)O)c2C)NC1=O [4E,15Z-bilirubin IXa]",7.62 min
6,"C=CC1=C(C)C(=O)N=C1C=c1[nH]c(=Cc2[nH]c(CC3NC(=O)C(C=C)=C3C)c(C)c2CCC(=O)O)c(CCC(=O)O)c1C (stereo not given) [15,16-dihydrobiliverdin]",7.42 min
7,CCCCCCCCCCCCCC=CC(O)C(COP(=O)(O)O)NC(=O)CCCCCCCCCCC (stereo not given) [CerP(d18:1/12:0)],7.37 min
8,NC(N)=NCCC[C@H](NCCC(=O)O)C(=O)O [L-N2-(2-carboxyethyl)arginine],4.28 min
9,CCCCCCCCC=CCCCCCCCCCC(=O)OCC(O)COP(=O)([O-])OCC[N+](C)(C)C (stereo not given) [LysoPC(20:1)],6.88 min
10,CCCCCC=CCC=CCC=CCC=CCCCC(=O)OCC(O)COP(=O)([O-])OCC[N+](C)(C)C (stereo not given) [LysoPC(20:4)],7.74 min
11,CC(=O)C(CCCCN)NS(=O)(=O)c1ccc(C)cc1 [N-tosyl-L-lysinyl methyl ketone],7.42 min
12,CCCCCCCCCC(=O)O[C@H](CC(=O)[O-])C[N+](C)(C)C [O-decanoyl-L-carnitine],5.71 min
13,CCCCCC=CCC=CCCCCCCCC(=O)OC(CC(=O)[O-])C[N+](C)(C)C (stereo not given) [O-linoelaidylcarnitine],5.98 min
14,CCCCCCCC(=O)O[C@H](CC(=O)[O-])C[N+](C)(C)C [O-octanoyl-R-carnitine],5.12 min
15,CCCCCCCCCCCCCCCCOCC(O)COP(=O)([O-])OCC[N+](C)(C)C (stereo not given) [PC(O-16:0/0:0)],6.42 min
16,[NH3+]C(Cc1ccccc1)C(=O)NC(Cc1ccccc1)C(=O)[O-] (stereo not given) [Phe-Phe],2.91 min
17,CC(CCC(=O)NCC(=O)O)C1CCC2C3C(O)CC4CC(O)CCC4(C)C3CCC12C (stereo not given) [glycochenodeoxycholic acid (GCDCA)],4.79 min
18,CC(CCC(=O)NCC(=O)O)C1CCC2C3C(O)CC4CC(O)CCC4(C)C3CC(O)C12C (stereo not given) [glycocholic acid (GCA)],4.3 min
19,CC(CCC(=O)NCC(=O)O)C1CCC2C3CCC4CC(O)CCC4(C)C3CC(O)C12C (stereo not given) [glycodeoxycholic acid (GDCA)],4.28 min
20,CCCCCC=CCC=CCCCCCCCC(=O)O [octadecadienoic acid],7.44 min
21,CCCCCCCCC=CCCCCCCCC(N)=O [oleamide],7.16 min
22,CCCCCCCCC=CCCCCCCCC(=O)OC(CC(=O)[O-])C[N+](C)(C)C (stereo not given) [oleoylcarnitine],6.24 min
23,CCCCCCCCCCCCCCCC(=O)OC(CC(=O)[O-])C[N+](C)(C)C (stereo not given) [palmitylcarnitine],6.15 min
24,CC(=O)Cc1ccccc1 [phenylmethyl methyl ketone],3.31 min
25,CC(CCC(=O)NCCS(=O)(=O)O)C1CCC2C3C(O)CC4CC(O)CCC4(C)C3CCC12C (stereo not given) [taurochenodeoxycholic acid (TCDCA)],3.89 min
